From PubChem BioAssay (NCI)
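Interpolation was linear, between the two tested concentrations surrounding the appropriate level; five concentrations were tested over 48 hours in 96-well plates. GI50 = concentration required for 50% inhibition of growth. TGI: concentration producing complete growth inhibition.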

Tests used:
Test in all cases: NCI-60 cell line screen, 48 h
[1] = system: NCI-H460 lung
[2] = system: MOLT-4 leukemia
[3] = system: UACC-257 melanoma
[4] = system: HCT-116 colon
[5] = system: NCI-H226 lung
[6] = system: SF-268 CNS
[7] = system: MALME-3M melanoma
[8] = system: BT-549 breast
[9] = system: HL-60(TB) leukemia
[10] = system: CCRF-CEM leukemia
[11] = system: RPMI-8226 leukemia
[12] = system: CAKI-1 renal
[13] = system: SNB-19 CNS
[14] = system: A549 NSCLC
[15] = system: SF-539 CNS
[16] = system: PC-3 prostate
[17] = system: UACC-62 melanoma
[18] = system: DU-145 prostate
[19] = system: T-47D breast
[20] = system: SW-620 colon
[21] = system: SF-295 CNS
[22] = system: HOP-62 NSCLC
[23] = system: U251 CNS
[24] = system: LOX IMVI melanoma
[25] = system: OVCAR-8 ovarian
[26] = system: IGROV1 ovarian
[27] = system: SNB-75 CNS
[28] = system: SK-OV-3 ovarian
[29] = system: NCI-H522 lung
[30] = system: HT29 colon
[31] = system: RXF 393 renal
[32] = system: NCI-H23 lung
[33] = system: MCF7 breast
[34] = system: UO-31 renal
[35] = system: MDA-MB-231 breast
[36] = system: ACHN renal
[37] = system: SK-MEL-2 melanoma
[38] = system: NCI/ADR-RES ovarian
[39] = system: SK-MEL-28 melanoma
[40] = system: COLO 205 colon
[41] = system: HS 578T breast
[42] = system: EKVX NSCLC
[43] = system: TK-10 renal
[44] = system: MDA-MB-435
[45] = system: 786-0 renal
[46] = system: OVCAR-4 ovarian
[47] = system: SK-MEL-5 melanoma
[48] = system: SN12C renal
[49] = system: HCT-15 colon
[50] = system: OVCAR-5 ovarian
[51] = system: M14 melanoma
[52] = system: KM12 colon
[53] = system: A498 renal
[54] = system: HCC-2998 colon
[55] = system: HOP-92 NSCLC
[56] = system: K-562 leukemia

With CCCCCc1ccc(S(=O)(=O)N(C(C)=O)c2cccc(-c3csc(N(CCN4CCN(C)CC4)C(C)=O)n3)c2)cc1 the GI50 [1] was 1.4 µM, the TGI [1] was 4.61 µM and the GI50 [2] was 1.22 µM. The TGI [2] was 5.26 µM, the GI50 [3] was 4.37 µM and the TGI [3] was 8.1 µM. It also gave a GI50 [4] of 0.929 µM, a TGI [4] of 3.41 µM and a GI50 [5] of 4.09 µM. It also gave a TGI [5] of 8.82 µM, a GI50 [6] of 3.56 µM and a TGI [6] of 7.6 µM. The GI50 [7] was 1.58 µM, the TGI [7] was 5.04 µM and the GI50 [8] was 2.94 µM. The TGI [8] was 6.04 µM, the GI50 [9] was 0.991 µM and the TGI [9] was 4.51 µM. The GI50 [10] was 1.95 µM, the TGI [10] was 7.49 µM and the GI50 [11] was 2.5 µM. The TGI [11] was 7.53 µM, the GI50 [12] was 2.93 µM and the TGI [12] was 6.2 µM. The GI50 [13] was 3.63 µM, the TGI [13] was 7.14 µM and the GI50 [14] was 3.03 µM. For the same molecule, the TGI [14] was 6.27 µM, the GI50 [15] was 3.64 µM and the TGI [15] was 7.01 µM. For the same molecule, the GI50 [16] was 3.32 µM, the TGI [16] was 7.06 µM and the GI50 [17] was 4.21 µM. It also gave a TGI [17] of 7.79 µM, a GI50 [18] of 3.48 µM and a TGI [18] of 6.81 µM. For the same molecule, the GI50 [19] was 2.79 µM, the TGI [19] was 6.73 µM and the GI50 [20] was 0.824 µM. The TGI [20] was 3.19 µM, the GI50 [21] was 3.63 µM and the TGI [21] was 7.15 µM. The GI50 [22] was 3.58 µM, the TGI [22] was 7.3 µM and the GI50 [23] was 2.75 µM. The TGI [23] was 5.81 µM, the GI50 [24] was 0.085 µM and the TGI [24] was 1.26 µM. For the same molecule, the GI50 [25] was 3.51 µM, the TGI [25] was 6.95 µM and the GI50 [26] was 2.96 µM. It also gave a TGI [26] of 6.61 µM, a GI50 [27] of 1.06 µM and a TGI [27] of 5.21 µM. The GI50 [28] was 4.04 µM, the TGI [28] was 7.64 µM and the GI50 [29] was 3.91 µM. For the same molecule, the TGI [29] was 7.55 µM, the GI50 [30] was 0.856 µM and the TGI [30] was 2.71 µM. For the same molecule, the GI50 [31] was 1.19 µM, the TGI [31] was 4.35 µM and the GI50 [32] was 3.8 µM. The TGI [32] was 7.39 µM, the GI50 [33] was 0.83 µM and the TGI [33] was 3.3 µM. For the same molecule, the GI50 [34] was 2.86 µM, the TGI [34] was 5.96 µM and the GI50 [35] was 2.64 µM. For the same molecule, the TGI [35] was 5.96 µM, the GI50 [36] was 3.52 µM and the TGI [36] was 6.77 µM. For the same molecule, the GI50 [37] was 3.99 µM, the TGI [37] was 7.44 µM and the GI50 [38] was 3.5 µM. The TGI [38] was 7.55 µM, the GI50 [39] was 3.07 µM and the TGI [39] was 6.22 µM. The GI50 [40] was 0.815 µM, the TGI [40] was 2.96 µM and the GI50 [41] was 3.3 µM. It also gave a TGI [41] of 10.8 µM, a GI50 [42] of 3.79 µM and a TGI [42] of 7.27 µM. For the same molecule, the GI50 [43] was 4.08 µM, the TGI [43] was 7.57 µM and the GI50 [44] was 0.987 µM. The TGI [44] was 3.74 µM, the GI50 [45] was 0.642 µM and the TGI [45] was 2 µM. It also gave a GI50 [46] of 3.49 µM, a TGI [46] of 7.42 µM and a GI50 [47] of 3.31 µM. For the same molecule, the TGI [47] was 6.57 µM, the GI50 [48] was 3.4 µM and the TGI [48] was 6.75 µM. The GI50 [49] was 0.837 µM, the TGI [49] was 2.98 µM and the GI50 [50] was 3.5 µM. The TGI [50] was 6.81 µM, the GI50 [51] was 2.23 µM and the TGI [51] was 5.64 µM. The GI50 [52] was 4.04 µM, the TGI [52] was 8.04 µM and the GI50 [53] was 1.24 µM. The TGI [53] was 4.75 µM, the GI50 [54] was 1.15 µM and the TGI [54] was 4.07 µM. The GI50 [55] was 1.06 µM, the TGI [55] was 4.62 µM and the GI50 [56] was 0.751 µM. The TGI [56] was 3.01 µM.
